Data set [1] can be described thus: in vitro. To be noted: hamster.
Data set [2] in a line: in vitro. The settings on record: African green monkey.
A further data set deals with West Nile virus. The settings on record: cited from earlier work.

A value given as a limit tells only on which side of the number the result lay.

Turning to `CC(C)=CCC[C@](C)(O)C1CC[C@@H]2C1CC[C@H]1C2(C)CC[C@H]2C(C)(C)C(=O)CCC12C` (stereo partly drawn) [Compound C01225, (5R,9S,14R)-dodecahydro-17-((S)-2-hydroxy-6-methylhept-5-en-2-yl)-4,4,8,10-tetramethyl-2Hcyclopenta[a]phenanthren-3(4H,9H,14H)-one], the CC50 in “in vitro [1]” and in “in vitro [2]” was above 100 µM throughout.
As to `NC(=O)CCS(=O)(=O)c1ccc(Cl)cc1` [Compound C03455, 3-(4-Chlorobenzenesulfonyl)-propionamide], the “activity against West Nile virus” value with West Nile virus is “active”. Besides, the figures for the CC50 in “in vitro [1]” and in the data set “in vitro [2]” were 87 ± 5.23 µM and above 100 µM, respectively.
With `COc1cc(/C=C(/NC(=O)c2ccccc2)C(=O)NNC(=O)CN)ccc1O` [Compound C11472, (E)-N′-(2-aminoacetyl)-2-(benzamido)-3-(4-hydroxy-3-methoxyphenyl)acrylohydrazide], the CC50 in “in vitro [1]” is above 100 µM; in the data set “in vitro [2]”, 82 ± 4.33 µM.
In the same order, the values of `CC1=C(C(=O)OCCc2ccccc2)C(c2ccccc2[N+](=O)[O-])C2=C(CCCC2=O)N1` (stereo not shown) [Compound C12344, 3-Quinolinecarboxylic acid, 1,4,5,6,7,8-hexahydro-2-methyl-4-(2-nitrophenyl)-5-oxo-, 2-phenylethyl ester] are above 100 µM and above 100 µM.
Turning to `CCOC(=O)c1cnc2ccc(OCC)cc2c1NCc1ccccc1` [Compound C26505, 4-Benzylamino-6-ethoxy-quinoline-3-carboxylic acid ethylester], the “activity against West Nile virus” value in the data set with West Nile virus was “active”. Moreover, the values for the CC50 in the data set “in vitro [1]” and in the data set “in vitro [2]” were 78 ± 4.87 µM and above 100 µM, respectively.
For the compound `N#Cc1c(N)nc(Sc2ccc(Cl)cc2)c(C#N)c1-c1cccs1` [Compound C47655, 2-Amino-6-[(4-chlorophenyl)thio]-4-(2-thienyl)pyridine-3,5-dicarbonitrile], the CC50 in the data set “in vitro [1]” and in the data set “in vitro [2]” was above 100 µM throughout.
“S-Nitroso-N-acetyl penicillamine [Compound C38477]”: the CC50 in the data set with BHK-21 cells came out at 58 ± 1.22 µM; with Vero E6 cells, 84 ± 2.96 µM.
